Data set [1] in a line: Cytotoxicity against Jurkat cells (CellTiter Blue). The settings on record: human. The class given is cell-based, human. As to the method:
(§1) The cytotoxicities of selected peptides against human T-lymphocytes, in particular Jurkat cells, was determined by growing 100 uL Jurkat cells in RPMI (approx. 5×10^5 cells/ml density) overnight at 37° C. under 5% CO2 atmosphere, in microtiter plate wells, in the presence and absence of peptides. Control reactions either lacked peptide (negative cytotoxicity control), or contained a buffer to completely lyse Jurkat cells (positive cytotoxicity control). The viabilities of cells were then determined by addition of 20 uL CellTiter Blue dye (Promega) to each well, and incubation of cells for a further 3 hrs at 37° C. Fluorescence values were measured for 1 sec at 540 nm/615 nm, and expressed relative to fluorescence values for negative and positive cytotoxicity control samples. Comparison with a fully lysed control allowed the calculation of a percentage killing for each peptide concentration. The MCC10 value was calculated as the minimum peptide concentration required to induce 10% cytotoxicity.
Background: Alamar Blue is a resazurin reagent that responds to reducing activity.

Data set [2] relates to Jurkat cells. The data set can be described thus: Cytotoxicity against Jurkat cells (CellTiter Blue). The class given is cell-based, human. As to the method: as §1
In data set [3] the test system is human RBC. The data set can be described thus: Hemolysis of RBC. The class given is cell-based. As to the method: Varying amounts of peptide were incubated with the washed RBC for one hour at room temperature. Intact cells were pelleted by gentle centrifugation, and hemolysis of each sample was determined by absorption measurement at 450 nm. A positive control sample consisted of RBC lysed by the addition of 0.1% Triton, for which hemolysis was also determined by absorption measurement at 450 nm. Percentages of lysed RBC incubated with peptide were then calculated by the ratio of absorbances at 450 nm for the sample relative to the absorbance at 450 nm of the positive control sample. The MHC10 value was calculated as the minimum peptide concentration to induce 10% cell lysis.

Data set [4] concerns A. baumannii. The class given is cell-based. The essentials:
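Laboratory strains and 50 clinical isolates of A. baumannii were tested by CLSI broth microdilution, with serially diluted peptide (0.1-64 μg) and about 1×10^5 C.F.U. per well, incubated aerobically overnight at 35±2° C. MIC was read visually. MBC came from subculturing clear wells, as ≥99.9% inoculum reduction.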

≈ marks a conversion by molar mass, not a printed value. Peptide text beside a SMILES is read from it. * marks the point of attachment. Biotin = O=C1N[C@H]2[C@H](CS[C@H]2CCCCC(=O)*)N1

In general, MIC refers to the lowest concentration that inhibits growth of the organism. Low readings indicate inhibition by little substance, high ones a need for much substance.

In data set [1], `CC[C@H](C)[C@H](NC(=O)[C@H](Cc1c[nH]cn1)NC(=O)[C@H](CO)NC(=O)[C@H](CC(C)C)NC(=O)[C@H](CS)NC(=O)[C@H](CS)NC(=O)[C@H](CCCNC(=N)N)NC(=O)[C@H](CCSC)NC(=O)[C@@H](NC(=O)[C@@H]1CCCN1C(=O)[C@H](CCC(N)=O)NC(=O)[C@H](Cc1c[nH]cn1)NC(=O)[C@H](CS)NC(=O)CCCC[C@@H]1SC[C@@H]2NC(=O)N[C@@H]21)[C@@H](C)O)C(=O)N[C@@H](CCCNC(=N)N)C(=O)N[C@@H](CCCNC(=N)N)C(=O)N[C@@H](CCCNC(=N)N)C(=O)N[C@@H](Cc1ccccc1)C(=O)N[C@@H](CCCNC(=N)N)C(=O)N[C@@H](CC(C)C)C(=O)O` [Ac431] (Biotin-CHQPTMRCCLSHIRRRFRL-OH; N-terminus and C-terminus assumed) returned a cytotoxicity at 12.5 μM of 4%, a cytotoxicity at 25 μM of 15% and a cytotoxicity at 50 μM of 29%. Moreover, in data set [2], the MCC10 was found to be 20 µM. Besides, the MHC10 in data set [3] was 25 µM. For the same compound, the “MIC (μM) for non-amidated Peptide” value in data set [4] came out at 15 µM.

In data set [1], `CC[C@H](C)[C@H](NC(=O)[C@H](CCC(N)=O)NC(=O)[C@H](CCCNC(=N)N)NC(=O)[C@@H](NC(=O)[C@@H](NC(=O)[C@@H]1CCCN1C(=O)[C@@H]1CCCN1C(=O)[C@H](CCSC)NC(=O)[C@H](CCCNC(=N)N)NC(=O)[C@H](CC(N)=O)NC(=O)[C@@H](NC(=O)CNC(=O)[C@H](Cc1c[nH]c2ccccc12)NC(=O)CCCC[C@@H]1SC[C@@H]2NC(=O)N[C@@H]21)C(C)C)C(C)C)C(C)C)C(=O)N[C@@H](CC(C)C)C(=O)N[C@@H](CCCNC(=N)N)C(=O)N[C@@H](CO)C(=O)N[C@@H](CCC(=O)O)C(=O)N[C@@H](Cc1c[nH]c2ccccc12)C(=O)N[C@@H](CCCNC(=N)N)C(=O)N[C@@H](CC(N)=O)C(=O)N[C@@H](Cc1c[nH]c2ccccc12)C(=O)N[C@@H](CCCNC(=N)N)C(=O)N[C@@H](CCCCN)C(=O)O` [Ac436] (Biotin-WGVNRMPPVVRQILRSEWRNWRK-OH) had a cytotoxicity at 12.5 μM of 6%, a cytotoxicity at 25 μM of 10% and a cytotoxicity at 50 μM of 32%. The MCC10 in data set [2] came to 25 µM. The MHC10 in data set [3] worked out at 75 µM. The “MIC (μM) for non-amidated Peptide” value in data set [4] was determined as 10 µM.

In data set [1], `CC[C@H](C)[C@H](NC(=O)[C@H](C)NC(=O)[C@H](CC(N)=O)NC(=O)[C@H](CS)NC(=O)[C@H](CS)NC(=O)CCCC[C@@H]1SC[C@@H]2NC(=O)N[C@@H]21)C(=O)N[C@H](C(=O)N[C@@H](Cc1ccc(O)cc1)C(=O)N[C@@H](CCCCN)C(=O)N[C@@H](Cc1c[nH]c2ccccc12)C(=O)N[C@H](C(=O)N[C@@H](CC(C)C)C(=O)N[C@@H](Cc1c[nH]cn1)C(=O)N[C@@H](Cc1ccccc1)C(=O)N[C@@H](Cc1ccccc1)C(=O)N[C@@H](Cc1c[nH]c2ccccc12)C(=O)N[C@@H](CCCNC(=N)N)C(=O)N[C@@H](CCCCN)C(=O)N[C@@H](CCCNC(=N)N)C(=O)N[C@@H](C)C(=O)N[C@@H](Cc1c[nH]c2ccccc12)C(=O)N[C@@H](Cc1ccc(O)cc1)C(=O)N[C@@H](CS)C(=O)N[C@@H](Cc1ccccc1)C(=O)O)[C@@H](C)CC)[C@@H](C)CC` [Ac228] (Biotin-CCNAIIYKWILHFFWRKRAWYCF-OH; N-terminus and C-terminus assumed) returned a cytotoxicity at 12.5 μM of 0%, a cytotoxicity at 25 μM of 5% and a cytotoxicity at 50 μM of 29%. In data set [2], the MCC10 came out at 42 µM. Also, in data set [3], the MHC10 is around 10 µM and the “haemolytic activity (in words)” value is recorded as “reproducibly higher haemolytic activities”. Further, the “Percent hemolysis at 5 μM peptide” value in data set [3] (red cells of human, 5) was 2.6%. In addition, the “Percent hemolysis at 10 μM peptide” value in data set [3] (red cells of human, 10) turned out to be 11.0%. For the same compound, the “Percent hemolysis at 20 μM peptide” value in data set [3] (red cells of human, 20) is given as 9.9%. In addition, the “Percent hemolysis at 40 μM peptide” value in data set [3] (red cells of human, 40) is recorded as 22.9%. In data set [3] (red cells of human, 60), the “Percent hemolysis at 60 μM peptide” value is 40.1%. For the same compound, the “Percent hemolysis at 80 μM peptide” value in data set [3] (red cells of human, 80) is recorded as 80.4%. Also, the “Percent hemolysis at 100 μM peptide” value in data set [3] (red cells of human, 1 h, 100) is 97.1%. In addition, in data set [4], the “MIC” value came out at 25 µM (≈ 82.4 µg/mL), the “MIC (μM) for non-amidated Peptide” value fell in the range of 20 to 25 µM and the “bactericidal or bacteriostatic against A. baumannii” value is recorded as “bacteriostatic”. For the same compound, the “MBC (μM)” value in data set [4] (A. baumannii (Table 8), reduces original inoculum by at least about 99.9%) is “bacteriostat”.

In data set [1], `CC[C@H](C)[C@H](NC(=O)[C@H](Cc1ccccc1)NC(=O)[C@H](CC(C)C)NC(=O)[C@H](CCC(N)=O)NC(=O)[C@H](CCCNC(=N)N)NC(=O)[C@H](Cc1ccccc1)NC(=O)[C@H](Cc1ccc(O)cc1)NC(=O)[C@H](CC(C)C)NC(=O)[C@H](Cc1c[nH]c2ccccc12)NC(=O)[C@H](Cc1ccccc1)NC(=O)[C@H](CCCNC(=N)N)NC(=O)[C@H](CCCNC(=N)N)NC(=O)[C@H](CO)NC(=O)[C@H](CC(=O)O)NC(=O)[C@H](CC(C)C)NC(=O)[C@H](Cc1c[nH]c2ccccc12)NC(=O)[C@H](Cc1ccccc1)NC(=O)[C@H](CC(=O)O)NC(=O)[C@H](CCCNC(=N)N)NC(=O)CCCC[C@@H]1SC[C@@H]2NC(=O)N[C@@H]21)C(=O)N[C@@H](Cc1c[nH]cn1)C(=O)N[C@@H](CC(N)=O)C(=O)N1CCC[C@H]1C(=O)N[C@@H](CCCCN)C(=O)O` [Ac475] (Biotin-RDFWLDSRRFWLYFRQLFIHNPK-OH) showed a cytotoxicity at 12.5 μM of 4%, a cytotoxicity at 25 μM of 4% and a cytotoxicity at 50 μM of 60%. For the same compound, the MCC10 in data set [2] turned out to be 35 µM. This compound also registered an MHC10 in data set [3] of 10 µM. The “MIC (μM) for non-amidated Peptide” value in data set [4] amounted to 15 µM.

For the compound `CC[C@H](C)[C@H](NC(=O)[C@@H]1CCCN1C(=O)CCCC[C@@H]1SC[C@@H]2NC(=O)N[C@@H]21)C(=O)N1CCC[C@H]1C(=O)N[C@@H](Cc1ccccc1)C(=O)N[C@@H](Cc1ccccc1)C(=O)N[C@@H](CC(N)=O)C(=O)N[C@@H](CCCNC(=N)N)C(=O)N[C@H](C(=O)NCC(=O)N[C@@H](Cc1ccccc1)C(=O)N[C@@H](Cc1ccccc1)C(=O)N[C@@H](CS)C(=O)N[C@@H](CC(C)C)C(=O)N1CCC[C@H]1C(=O)N[C@@H](CCCCN)C(=O)N[C@@H](CC(N)=O)C(=O)N[C@@H](CC(C)C)C(=O)N[C@@H](CCCCN)C(=O)N[C@@H](CCCNC(=N)N)C(=O)N[C@@H](CO)C(=O)N[C@@H](CCCCN)C(=O)N[C@@H](Cc1ccccc1)C(=O)N[C@@H](CS)C(=O)O)[C@@H](C)O` [Ac322] (Biotin-PIPFFNRTGFFCLPKNLKRSKFC-OH; N-terminus and C-terminus assumed), in data set [1], the cytotoxicity at 12.5 μM stood at 0%, the cytotoxicity at 25 μM is 0% and the cytotoxicity at 50 μM came out at 59%. For the same compound, the MCC10 in data set [2] amounted to 30 µM. Also, the MHC10 in data set [3] is 25 µM. In data set [4], the “MIC (μM) for non-amidated Peptide” value worked out at 5 µM.

Regarding `CC[C@H](C)[C@H](NC(=O)[C@H](Cc1ccccc1)NC(=O)[C@H](CC(C)C)NC(=O)[C@H](CCC(N)=O)NC(=O)[C@H](CCCNC(=N)N)NC(=O)[C@H](Cc1ccccc1)NC(=O)[C@H](Cc1ccc(O)cc1)NC(=O)[C@H](CC(C)C)NC(=O)[C@H](Cc1c[nH]c2ccccc12)NC(=O)[C@H](Cc1ccccc1)NC(=O)[C@H](CCCNC(=N)N)NC(=O)[C@H](CCCNC(=N)N)NC(=O)[C@H](CO)NC(=O)[C@H](CC(=O)O)NC(=O)CCCC[C@@H]1SC[C@@H]2NC(=O)N[C@@H]21)C(=O)N[C@@H](Cc1c[nH]cn1)C(=O)N[C@@H](CC(N)=O)C(=O)N1CCC[C@H]1C(=O)N[C@@H](CCCCN)C(=O)N[C@H](C(=O)N1CCC[C@H]1C(=O)N[C@H](C(=O)N[C@H](C(=O)N1CCC[C@H]1C(=O)O)[C@@H](C)O)[C@@H](C)CC)[C@@H](C)O` [Ac476] (Biotin-DSRRFWLYFRQLFIHNPKTPITP-OH), in data set [1], the cytotoxicity at 12.5 μM was 12%, the cytotoxicity at 25 μM is 18% and the cytotoxicity at 50 μM amounted to 44%. In data set [2], the MCC10 was found to be 10 µM. Also, the MHC10 in data set [3] came out at 50 µM. The “MIC (μM) for non-amidated Peptide” value in data set [4] stood at 5 µM.

In data set [1], `CC(C)C[C@H](NC(=O)[C@H](Cc1ccccc1)NC(=O)CNC(=O)[C@H](CO)NC(=O)[C@@H]1CCCN1C(=O)[C@H](Cc1c[nH]c2ccccc12)NC(=O)[C@@H](NC(=O)[C@@H]1CCCN1C(=O)[C@H](CCCNC(=N)N)NC(=O)[C@@H](NC(=O)[C@H](C)NC(=O)[C@H](CS)NC(=O)[C@H](CCCNC(=N)N)NC(=O)[C@H](CO)NC(=O)[C@H](CO)NC(=O)CCCC[C@@H]1SC[C@@H]2NC(=O)N[C@@H]21)C(C)C)C(C)C)C(=O)N[C@@H](CCCNC(=N)N)C(=O)N[C@@H](CCCNC(=N)N)C(=O)N[C@@H](CC(C)C)C(=O)N[C@@H](CO)C(=O)N[C@@H](CC(=O)O)C(=O)N[C@@H](CCCNC(=N)N)C(=O)N[C@@H](CS)C(=O)N[C@@H](CS)C(=O)O` [Ac328] (Biotin-SSRCAVRPVWPSGFLRRLSDRCC-OH; N-terminus and C-terminus assumed) gave a cytotoxicity at 12.5 μM of 1%, a cytotoxicity at 25 μM of 17% and a cytotoxicity at 50 μM of 32%. In addition, in data set [2], the MCC10 amounted to 20 µM. In addition, in data set [3], the MHC10 was 20 µM. In addition, the “MIC (μM) for non-amidated Peptide” value in data set [4] is 12.5 µM.

These data come from US20110262508A1, “ANTIMICROBIAL COMPOSITIONS, FORMULATIONS AND USES THEREOF” (priority 2007, published 2011).
